Source: ChEMBL document CHEMBL2380212, “Synthesis, single crystal and antitumor activities of benzimidazole-quinazoline hybrids” (Bioorg Med Chem Lett, 2013)

Experiments:
Format in all cases: functional
[1] = test system: MDA-MB-468; test: Cytotoxicity against human MDA-MB-468 cells at 10 uM after 48 hrs by SRB assay; details: MDA-MB-468, 48 h, read-out: GI
[2] = test system: BT-549; test: Cytotoxicity against human BT549 cells at 10 uM after 48 hrs by SRB assay; details: BT-549, 48 h, read-out: GI
[3] = test system: T47D; test: Cytotoxicity against human T47D cells at 10 uM after 48 hrs by SRB assay; details: read-out: GI
[4] = test system: MCF7; test: Cytotoxicity against human MCF7 cells at 10 uM after 48 hrs by SRB assay; details: MCF7, 48 h, read-out: GI
[5] = test system: DU-145; test: Cytotoxicity against human DU145 cells at 10 uM after 48 hrs by SRB assay; details: DU-145, 48 h, read-out: GI
[6] = test system: UO-31; test: Cytotoxicity against human UO31 cells at 10 uM after 48 hrs by SRB assay; details: UO-31, 48 h, read-out: GI
[7] = test system: PC-3; test: Cytotoxicity against human PC3 cells at 10 uM after 48 hrs by SRB assay; details: PC-3, 48 h, read-out: GI
[8] = test system: TK-10; test: Cytotoxicity against human TK10 cells at 10 uM after 48 hrs by SRB assay; details: TK-10, 48 h, read-out: GI
[9] = test system: RXF 393; test: Cytotoxicity against human RXF393 cells at 10 uM after 48 hrs by SRB assay; details: RXF 393, 48 h, read-out: GI
[10] = test system: CAKI-1; test: Cytotoxicity against human Caki1 cells at 10 uM after 48 hrs by SRB assay; details: CAKI-1, 48 h, read-out: GI
[11] = test system: ACHN; test: Cytotoxicity against human ACHN cells at 10 uM after 48 hrs by SRB assay; details: read-out: GI
[12] = test system: A498; test: Cytotoxicity against human A498 cells at 10 uM after 48 hrs by SRB assay; details: A498, 48 h, read-out: GI
[13] = test system: 786-0; test: Cytotoxicity against human 786-0 cells at 10 uM after 48 hrs by SRB assay; details: 786-0, 48 h, read-out: GI
[14] = test system: NCI/ADR-RES; test: Cytotoxicity against human NCI/ADR-RES cells at 10 uM after 48 hrs by SRB assay; details: read-out: GI
[15] = test system: OVCAR-4; test: Cytotoxicity against human OVCAR4 cells at 10 uM after 48 hrs by SRB assay; details: OVCAR-4, 48 h, read-out: GI
[16] = test system: OVCAR-3; test: Cytotoxicity against human OVCAR3 cells at 10 uM after 48 hrs by SRB assay; details: OVCAR-3, 48 h, read-out: GI
[17] = test system: UACC-62; test: Cytotoxicity against human UACC62 cells at 10 uM after 48 hrs by SRB assay; details: UACC-62, 48 h, read-out: GI
[18] = test system: UACC-257; test: Cytotoxicity against human UACC257 cells at 10 uM after 48 hrs by SRB assay; details: UACC-257, 48 h, read-out: GI
[19] = test system: SK-MEL-28; test: Cytotoxicity against human SK-MEL-28 cells at 10 uM after 48 hrs by SRB assay; details: SK-MEL-28, 48 h, read-out: GI
[20] = test system: SK-MEL-5; test: Cytotoxicity against human SK-MEL-5 cells at 10 uM after 48 hrs by SRB assay; details: SK-MEL-5, 48 h, read-out: GI
[21] = test system: SK-MEL-2; test: Cytotoxicity against human SK-MEL-2 cells at 10 uM after 48 hrs by SRB assay; details: SK-MEL-2, 48 h, read-out: GI
[22] = test system: M14; test: Cytotoxicity against human M14 cells at 10 uM after 48 hrs by SRB assay; details: M14, 48 h, read-out: GI
[23] = test system: LOX IMVI; test: Cytotoxicity against human LOXIMVI cells at 10 uM after 48 hrs by SRB assay; details: read-out: GI
[24] = test system: SNB-19; test: Cytotoxicity against human SNB19 cells at 10 uM after 48 hrs by SRB assay; details: SNB-19, 48 h, read-out: GI
[25] = test system: SF-295; test: Cytotoxicity against human SF295 cells at 10 uM after 48 hrs by SRB assay; details: SF-295, 48 h, read-out: GI
[26] = test system: SF-539; test: Cytotoxicity against human SF539 cells at 10 uM after 48 hrs by SRB assay; details: SF-539, 48 h, read-out: GI
[27] = test system: SF-268; test: Cytotoxicity against human SF268 cells at 10 uM after 48 hrs by SRB assay; details: SF-268, 48 h, read-out: GI
[28] = test system: SW-620; test: Cytotoxicity against human SW620 cells at 10 uM after 48 hrs by SRB assay; details: SW-620, 48 h, read-out: GI
[29] = test system: HT-29; test: Cytotoxicity against human HT-29 cells at 10 uM after 48 hrs by SRB assay; details: HT-29, 48 h, read-out: GI
[30] = test system: HCT-15; test: Cytotoxicity against human HCT15 cells at 10 uM after 48 hrs by SRB assay; details: HCT-15, 48 h, read-out: GI
[31] = test system: HCT-116; test: Cytotoxicity against human HCT116 cells at 10 uM after 48 hrs by SRB assay; details: HCT-116, 48 h, read-out: GI
[32] = test system: HCC 2998; test: Cytotoxicity against human HCC2998 cells at 10 uM after 48 hrs by SRB assay; details: HCC 2998, 48 h, read-out: GI
[33] = test system: NCI-H522; test: Cytotoxicity against human NCI-H522 cells at 10 uM after 48 hrs by SRB assay; details: NCI-H522, 48 h, read-out: GI
[34] = test system: NCI-H322M; test: Cytotoxicity against human NCI-H322M cells at 10 uM after 48 hrs by SRB assay; details: read-out: GI
[35] = test system: NCI-H226; test: Cytotoxicity against human NCI-H226 cells at 10 uM after 48 hrs by SRB assay; details: NCI-H226, 48 h, read-out: GI
[36] = test system: HOP-62; test: Cytotoxicity against human HOP62 cells at 10 uM after 48 hrs by SRB assay; details: HOP-62, 48 h, read-out: GI
[37] = Cytotoxicity against human EKVX cells at 10 uM after 48 hrs by SRB assay; details: read-out: GI
[38] = test system: A549; test: Cytotoxicity against human A549 cells at 10 uM after 48 hrs by SRB assay; details: A549, 48 h, read-out: GI
[39] = test system: SR; test: Cytotoxicity against human SR cells at 10 uM after 48 hrs by SRB assay; details: read-out: GI
[40] = test system: HL-60(TB); test: Cytotoxicity against human HL-60(TB) cells at 10 uM after 48 hrs by SRB assay; details: HL-60, 48 h, read-out: GI
[41] = test system: MOLT-4; test: Cytotoxicity against human MOLT4 cells at 10 uM after 48 hrs by SRB assay; details: MOLT-4, 48 h, read-out: GI
[42] = test system: RPMI-8226; test: Cytotoxicity against human RPMI8226 cells at 10 uM after 48 hrs by SRB assay; details: RPMI-8226, 48 h, read-out: GI

Row | SMILES | inhibition of growth at 10 µM [1] [%] | inhibition of growth at 10 µM [2] [%] | inhibition of growth at 10 µM [3] [%] | inhibition of growth at 10 µM [4] [%] | inhibition of growth at 10 µM [5] [%] | inhibition of growth at 10 µM [6] [%] | inhibition of growth at 10 µM [7] [%] | inhibition of growth at 10 µM [8] [%] | inhibition of growth at 10 µM [9] [%] | inhibition of growth at 10 µM [10] [%] | inhibition of growth at 10 µM [11] [%] | inhibition of growth at 10 µM [12] [%] | inhibition of growth at 10 µM [13] [%] | inhibition of growth at 10 µM [14] [%] | inhibition of growth at 10 µM [15] [%] | inhibition of growth at 10 µM [16] [%] | inhibition of growth at 10 µM [17] [%] | inhibition of growth at 10 µM [18] [%] | inhibition of growth at 10 µM [19] [%] | inhibition of growth at 10 µM [20] [%] | also measured
1 | C=CCn1c(C)nc2ccc(Nc3nc(N4CCOCC4)nc4ccccc34)cc21 | < 10 | < 10 | 11.2 | < 10 | < 10 | 14.7 | 11.4 | < 10 | < 10 | 11.5 | < 10 | 41.2 | < 10 | 23.6 | < 10 | < 10 | < 10 | < 10 | < 10 | < 10 | inhibition of growth at 10 µM [21]: < 10%; inhibition of growth at 10 µM [22]: < 10%; inhibition of growth at 10 µM [23]: < 10%; inhibition of growth at 10 µM [24]: < 10%; inhibition of growth at 10 µM [25]: < 10%; inhibition of growth at 10 µM [26]: < 10%; inhibition of growth at 10 µM [27]: < 10%; inhibition of growth at 10 µM [28]: < 10%; inhibition of growth at 10 µM [29]: 34.7%; inhibition of growth at 10 µM [30]: < 10%; inhibition of growth at 10 µM [31]: < 10%; inhibition of growth at 10 µM [32]: < 10%; inhibition of growth at 10 µM [33]: < 10%; inhibition of growth at 10 µM [34]: < 10%; inhibition of growth at 10 µM [35]: < 10%; inhibition of growth at 10 µM [36]: < 10%; inhibition of growth at 10 µM [37]: < 10%; inhibition of growth at 10 µM [38]: 11.8%; inhibition of growth at 10 µM [39]: < 10%; inhibition of growth at 10 µM [40]: 61.9%
2 | C=CCn1c(C)nc2ccc(Nc3nc(N4CCN(C)CC4)nc4ccccc34)cc21 | < 10 | 20.7 | 20.6 | 14.4 | < 10 | 34.2 | 25.9 | < 10 | < 10 | 14.4 | < 10 | < 10 | < 10 | < 10 | 20.7 | < 10 | < 10 | < 10 | < 10 | 18.3 | inhibition of growth at 10 µM [21]: < 10%; inhibition of growth at 10 µM [22]: < 10%; inhibition of growth at 10 µM [23]: 18%; inhibition of growth at 10 µM [24]: < 10%; inhibition of growth at 10 µM [25]: < 10%; inhibition of growth at 10 µM [26]: 23.5%; inhibition of growth at 10 µM [27]: < 10%; inhibition of growth at 10 µM [28]: < 10%; inhibition of growth at 10 µM [29]: 42.6%; inhibition of growth at 10 µM [30]: 10.1%; inhibition of growth at 10 µM [31]: 33%; inhibition of growth at 10 µM [32]: < 10%; inhibition of growth at 10 µM [33]: < 10%; inhibition of growth at 10 µM [34]: < 10%; inhibition of growth at 10 µM [35]: 13.6%; inhibition of growth at 10 µM [36]: 11.3%; inhibition of growth at 10 µM [38]: < 10%; inhibition of growth at 10 µM [41]: 43.1%; inhibition of growth at 10 µM [42]: 28.5%; inhibition of growth at 10 µM [40]: < 10%
